Measured values taken from patent US11072611B2, “Compounds and pharmaceutical compositions thereof for the treatment of inflammatory disorders” (Galapagos NV, priority 2013, dated 2021).

System: LPA 18:2
Test: Rat whole blood (plasma) LPA assay
Format: biochemical
Settings: 2 h at 37° C., LPA 18:2 by LC-MS/MS
Experimental: Whole blood is collected from rats or mouse by exsanguinations on sodium heparin tube, then after centrifugation at 3000 rpm for 15 min at 4° C., plasma is stored at −80° C. Compounds are diluted in DMSO in concentration dependent manner then 0.5 μL are dispensed into 96-well plate placed in ice. Plasma is defrosted on ice then 49.5 μL of plasma are added into the well containing 0.5 μL of compound (1% DMSO final). Plates are covered with a lid in polypropylene and incubated at +37° C., 5% CO2, for 2 h under gentle shaking (except controls which are stored at −20° C.).
At the end of the incubation, controls are defrosted in ice and transferred in the incubated plates for LC-MS/MS analysis with a non GLP-validated method. For the analysis, plasma proteins from a 10 μL incubated plates are precipitated with an excess of methanol containing the internal standard, LPA 17:0. After centrifugation, the corresponding supernatant is injected on a C18 column. Analytes are eluted out of the column under isocratic conditions. An API5500 QTRAP mass spectrometer (ABSciex™) is used for the detection of LPA 18:2. No calibration curve is prepared for LPA 18:2, however relative quantities are evaluated based on the peak area.

SMILES	IC50
CCc1nc2c(F)cc(N3CCN(CC(=O)NC)CC3)cn2c1N(C)c1nc(-c2ccc(F)cc2)c(C#N)s1 [Compound 13, 2-(4-(3-((5-cyano-4-(4-fluorophenyl)thiazol-2-yl)(methyl)amino)-2-ethyl-8-fluoroimidazo[1,2-a]pyridin-6-yl)piperazin-1-yl)-N-methylacetamide]	0.01 to 100 nM
CCc1nc2c(F)cc(N3CCN(CC(=O)N4CC(O)C4)CC3)cn2c1N(C)c1nc(-c2ccc(F)cc2)cs1 [Compound 14, 2-(4-(2-ethyl-8-fluoro-3-((4-(4-fluorophenyl)thiazol-2-yl)(methyl)amino)imidazo[1,2-a]pyridin-6-yl)piperazin-1-yl)-1-(3-hydroxyazetidin-1-yl)ethanone]	0.01 to 100 nM
CCc1nc2cc(F)c(N3CCN(CC(=O)N4CC(O)C4)CC3)cn2c1N(C)c1nc(-c2ccc(F)cc2)c(C#N)s1 [Compound 18, 2-[(2-Ethyl-7-fluoro-6-{4-[2-(3-hydroxy-azetidin-1-yl)-2-oxo-ethyl]-piperazin-1-yl}-imidazo[1,2-a]pyridin-3-yl)-methyl-amino]-4-(4-fluoro-phenyl)-thiazole-5-carbonitrile]	0.01 to 100 nM
CCc1nc2cc(F)c(N3CCN(CC(=O)N4CC(O)C4)CC3)cn2c1N(C)c1nc(-c2ccc(F)cc2)cs1 [Compound 19, 2-[4-(2-Ethyl-7-fluoro-3-{[4-(4-fluoro-phenyl)-thiazol-2-yl]-methyl-amino}-imidazo[1,2-a]pyridin-6-yl)-piperazin-1-yl]-1-(3-hydroxy-azetidin-1-yl)-ethanone]	> 1000 nM
CCc1nc2ccc(N3CCN(CC(=O)N4CC[C@@H](O)C4)CC3)cn2c1N(C)c1nc(-c2ccc(F)cc2)cs1 [Compound 26, (R)-2-(4-(2-ethyl-3-((4-(4-fluorophenyl)thiazol-2-yl)(methyl)amino)imidazo[1,2-a]pyridin-6-yl)piperazin-1-yl)-1-(3-hydroxypyrrolidin-1-yl)ethanone]	> 1000 nM
CCc1nc2ccc(N3CCN(C(=O)C4CCCN4)CC3)cn2c1N(C)c1nc(-c2ccc(F)cc2)cs1 (centres unmarked) [Compound 46, (4-(2-ethyl-3-((4-(4-fluorophenyl)thiazol-2-yl)(methyl)amino)imidazo[1,2-a]pyridin-6-yl)piperazin-1-yl)(pyrrolidin-2-yl)methanone]	> 1000 nM
CCc1nc2ccc(N3CCN(C(=O)C4CCN(C(C)=O)C4)CC3)cn2c1N(C)c1nc(-c2ccc(F)cc2)cs1 (centres unmarked) [Compound 48, 1-{3-[4-(2-Ethyl-3-{[4-(4-fluoro-phenyl)-thiazol-2-yl]-methyl-amino}-imidazo[1,2-a]pyridin-6-yl)-piperazine-1-carbonyl]-pyrrolidin-1-yl}-ethanone]	> 1000 nM
CCc1nc2ccc(N3CCN(C(=O)CCCN(C)C)CC3)cn2c1N(C)c1nc(-c2ccc(F)cc2)cs1 [Compound 53, 4-(dimethylamino)-1-(4-(2-ethyl-3-((4-(4-fluorophenyl)thiazol-2-yl)(methyl)amino)imidazo[1,2-a]pyridin-6-yl)piperazin-1-yl)butan-1-one]	> 1000 nM
CCc1nc2ccc(N3CCN(S(C)(=O)=O)CC3)cn2c1N(C)c1nc(-c2ccc(F)cc2)cs1 [Compound 54, N-(2-ethyl-6-(4-(methylsulfonyl)piperazin-1-yl)imidazo[1,2-a]pyridin-3-yl)-4-(4-fluorophenyl)-N-methylthiazol-2-amine]	> 1000 nM
CCc1nc2ccc(N3CCN(S(=O)(=O)CCCN(C)C)CC3)cn2c1N(C)c1nc(-c2ccc(F)cc2)cs1 [Compound 56, N-(6-(4-(3-(dimethylamino)propylsulfonyl)piperazin-1-yl)-2-ethylimidazo[1,2-a]pyridin-3-yl)-4-(4-fluorophenyl)-N-methylthiazol-2-amine]	> 1000 nM
CCc1nc2ccc(N3CCN(S(=O)(=O)CCCO)CC3)cn2c1N(C)c1nc(-c2ccc(F)cc2)cs1 [Compound 58, 3-(4-(2-ethyl-3-((4-(4-fluorophenyl)thiazol-2-yl)(methyl)amino)imidazo[1,2-a]pyridin-6-yl)piperazin-1-ylsulfonyl)propan-1-ol]	> 1000 nM
